Data published in ChEMBL document CHEMBL4011609, “Discovery of novel BRD4 inhibitors by high-throughput screening, crystallography, and cell-based assays” (Bioorg Med Chem Lett, 2017).

Biological target: T1, Bromodomain-containing protein 4 (Homo sapiens, UniProt O60885)
Test: Inhibition of human BRD4-BD1 (49 to 170 residues) expressed in Escherichia coli BL21(DE3) using N-C:SGRG-K(Ac)-GG-K(Ac)-GLG-K(Ac)-GGA-K(Ac)-RHRKVGG-K(biotin) as substrate preincubated for 15 mins followed by substrate addition measured after 5 mins by AlphaScreen assay relative to control
Parameters: concentration or dose not given beside the values

SMILES	inhibition
O=C(NCCNc1cc(=O)oc2ccccc12)c1ccc2ccccc2n1	12.8%
CN(CCCNc1cc(=O)oc2ccccc12)S(=O)(=O)c1ccccc1	28.6%
O=C(NCCNc1cc(=O)oc2ccccc12)c1cccs1	72%
CN1CCN(CCCNc2c(N)c(=O)oc3ccccc23)CC1	24.5%
CN(CCCNc1cc(=O)oc2ccccc12)C(=O)c1cccc(Cl)c1	97.1%
CN(CCCNC(=O)c1nc2ccccc2c(=O)[nH]1)C(=O)c1cccs1	56.5%
COc1cccc2cc(C(=O)N(C)C)c(=O)oc12	38.5%
CN(CCCNc1cc(=O)oc2ccccc12)C(=O)c1cccc(F)c1	97.3%
O=c1cc(NC2CCN(CCCc3ccccc3)CC2)c2ccc(Cl)cc2o1	22.1%
O=c1oc2ccccc2c(NCCCN2CCOCC2)c1[N+](=O)[O-]	42.8%
CN(CCCNc1cc(=O)oc2ccccc12)C(=O)c1ccco1	98%
COc1ccc(C(=O)N(C)CCCNc2cc(=O)oc3ccccc23)cc1	48.9%
O=C(CNc1cc(=O)oc2ccccc12)OCC(=O)c1ccc(Br)cc1	97.4%

Other lines, results leading:

inhibition	SMILES
96.2%	CN(CCCNc1cc(=O)oc2ccccc12)C(=O)C(C)(C)C
30.2%	O=C(NCCCNc1cc(=O)oc2ccccc12)c1cccnc1
37.2%	CN(C)CCCNCCCNc1cc(=O)oc2ccccc12
58.5%	O=c1cc(NCCCn2ccnc2)c2ccccc2o1
71.5%	O=C(NCCCNC(=O)c1cccs1)c1nc2ccccc2c(=O)[nH]1
43.6%	O=C(NCCNc1cc(=O)oc2ccccc12)c1ccco1
58.5%	O=c1oc2ccccc2c(NC2CCN(Cc3ccccc3)CC2)c1[N+](=O)[O-]
40.7%	O=c1oc2ccccc2c2ncn(CCCN3CCOCC3)c12
59.9%	O=c1cc(NCCCN2CCOCC2)c2ccccc2o1
52.3%	O=c1cc(NCCCN2CCN(Cc3ccccc3)CC2)c2ccccc2o1

Biological target: T1, Bromodomain-containing protein 4
Test: Inhibition of human BRD4-BD1 (49 to 170 residues) expressed in Escherichia coli BL21(DE3) using N-C:SGRG-K(Ac)-GG-K(Ac)-GLG-K(Ac)-GGA-K(Ac)-RHRKVGG-K(biotin) as substrate preincubated for 15 mins followed by substrate addition measured after 5 mins by AlphaScreen assay

SMILES	IC50
CC(=O)C(C(C)=O)C(c1ccc(Cl)cc1)c1ccc(Cl)cc1	27.5 µM
Cc1ccc(C)c(NC(=O)CC(c2ccccc2)c2ccccc2)c1	50.7 µM
CC(=O)N(C)c1ccc(NC(=O)COc2ccc(Br)cc2Cl)cc1	50.9 µM
CN(CCCNc1cc(=O)oc2ccccc12)C(=O)c1cccc(Cl)c1	3.65 µM
O=C(Nc1ccc(Cl)cn1)c1c(F)c(F)c(F)c(F)c1F	32.2 µM
O=C(c1ccccc1)c1ccc(NS(=O)(=O)c2cccc(Br)c2)cc1	39 µM
c1coc(-c2nnc(-c3ccc4ccccc4c3)c3nocc23)c1	13.3 µM
CN(CCCNc1cc(=O)oc2ccccc12)C(=O)c1cccc(F)c1	8.18 µM
O=C(Nc1cccc(S(=O)(=O)N2CCCC2)c1)c1nc[nH]n1	42.2 µM
Cc1[nH]n(-c2nc(O)c(Cc3ccccc3)c(=O)[nH]2)c(=O)c1CCO	3.09 µM
COC(=O)C(O)(c1cc(C)c2cccnc2c1O)C(F)(F)F (configuration not stated)	2.1 µM
CCCNS(=O)(=O)c1ccc2c3c(cccc13)C(=O)N2CC	2.64 µM
O=c1[nH]n(CC2COC3(CCCCC3)O2)c(=O)c2ccccc12 (configuration not stated)	13.3 µM
CCCn1nnc(NC(=O)COc2ccc(Cl)cc2C)n1	23.1 µM
N#Cc1c(-c2ccc(Cl)cc2)cc(-c2cccs2)nc1SCC(=O)NCC(=O)O	0.89 µM
Cc1ccn(-c2ccc(NCCNC(=O)c3ccc(Br)o3)nn2)n1	21.3 µM
O=C(CN1CC(=O)Oc2ccccc21)OCC(=O)c1ccc(Br)cc1	1.11 µM
COc1ccccc1NC(=O)CCSc1cccc2cccnc12	18.7 µM
Cc1ccc(-[n+]2c3ccccc3nc3ccc(N4CCOCC4)cc32)cc1	10.9 µM
CN(CCCNc1cc(=O)oc2ccccc12)C(=O)c1ccco1	2.05 µM
O=C(NCCNc1ccc(-n2cccn2)nn1)c1ccccc1Cl	11.2 µM
O=C(CNc1cc(=O)oc2ccccc12)OCC(=O)c1ccc(Br)cc1	1.04 µM
CCCNS(=O)(=O)c1ccc2c3c(cccc13)C(=O)N2C	9.57 µM

Continued, values first:

IC50	SMILES
4.56 µM	CN(CCCNc1cc(=O)oc2ccccc12)C(=O)C(C)(C)C
12.7 µM	CC1(C)CON(Cc2ccc(N3C(=O)c4cccnc4C3=O)cc2Cl)C1=O
1.91 µM	CCN1C(=O)c2cccc3c(S(=O)(=O)N4CCCC4)ccc1c23
47.3 µM	O=C(NCc1n[nH]c(=O)c2ccccc12)c1cccc(Cl)c1
2.83 µM	CC(=O)CC(c1ccccc1)c1c(O)c2ncccc2oc1=O (configuration not stated)
9.68 µM	CCN1C(=O)c2cccc3c(S(=O)(=O)Nc4ccccc4C)ccc1c23
69.2 µM	CCc1nnc(NC(=O)C2(C)COC(c3ccccc3)OC2)s1 (configuration not stated)
11 µM	COc1ccc(/C=C(\NC(=O)c2ccc(C)cc2)C(=O)NCCCn2ccnc2)cc1
5.36 µM	COc1ccc(C2=NN(C(=O)CCCC(=O)O)C(c3cn(-c4ccccc4)nc3-c3ccccc3)C2)cc1 (configuration not stated)
2.87 µM	CCOC(=O)c1ncccc1NC(=O)CC(=O)Nc1cccnc1C(=O)OCC
13.8 µM	O=C(NCCNc1ccc(-n2cccn2)nn1)c1ccccc1
